Measurements published in ChEMBL document CHEMBL1143891, “Synthesis of beta- and gamma-oxa isosteres of fosmidomycin and FR900098 as antimalarial candidates” (Bioorg Med Chem, 2008).

What was measured:
[1] = Inhibition of Escherichia coli DXR
Plasmodium falciparum = assay: Antimalarial activity against Plasmodium falciparum 3D7 in infected human erythrocytes after 48 hrs; type: functional, organism-based; conditions: 3D7, 48 h

Row | SMILES | IC50 [1] [nM] | IC50 (Plasmodium falciparum) [nM]
1 | O=CN(O)CCCP(=O)(O)O [FOSMIDOMYCIN] | 54 | 1200
2 | CN(O)C(=O)CCCP(=O)(O)O | 97 | 980
3 | CC(=O)N(O)CCCP(=O)(OCOC(=O)C(C)(C)C)OCOC(=O)C(C)(C)C | > 30000 | 99
4 | O=C(NO)OCCP(=O)(O)O | > 3000 | 
5 | CN(O)C(=O)COCP(=O)(OCOC(=O)C(C)(C)C)OCOC(=O)C(C)(C)C [BIS(PIVALOYLOXYMETHYL)ESTER] | > 30000 | 51
6 | CC(=O)N(O)COCP(=O)(O)O | 87 | 360
7 | O=CN(O)COCP(=O)(O)O | 1110 | 4900
8 | CC(=O)N(O)CCCP(=O)(O)O [FR-900098] | 62 | 430
9 | CN(O)C(=O)COCP(=O)(O)O | 72 | 240
10 | O=C(COCP(=O)(O)O)NO | > 3000 | 
11 | CN(O)C(=O)OCCP(=O)(O)O | 3000 | 
